Experimental data taken from patent US11013722B2, “Therapeutic agent for dyslipidemia” (KOWA COMPANY, LTD., priority 2012, dated 2021).

What was measured:
[1] = test system: High-Cholesterol Diet-Fed Rats; assay: Example 1: combined effect of compound A and ezetimibe, plasma HDL-C; assay type: in vivo, SD rats; details: for HDL-C Ave.: plasma, oral once a day, one week; for HDL-C Rate of Change: vs control
Method: The synergistic effect was determined by using Burgi's formula (if the relative level in the combined group is larger than the value of the product of the relative level of single agent A and the relative level of single agent B, the synergistic effect is positive).
(§1) Group 2: Compound A 0.1 mg/kg
Group 3: Ezetimibe 0.003 mg/kg
Group 4: Compound A 0.1 mg/kg and ezetimibe 0.003 mg/kg
(§2) The results were shown as the mean±standard deviation.

[2] = test system: High-Cholesterol Diet-Fed Rats; assay: Example 2: combined effect of compound A and ezetimibe, plasma TC and lipoprotein cholesterol; assay type: in vivo, SD rats
Method: The synergistic effect was determined by using Burgi's formula (in a case where a level lower than that in the control group is indicated in a drug administration group, that is, when the evaluation of an agent to the TC, VLDL-C, or LDL-C is performed, if the relative level in the combined group is smaller than the value of the product of the relative level of single agent A and the relative level of single agent B, the synergistic effect exists. In a case where a level higher than that in the control group is indicated in a drug administration group, that is, when the evaluation of an agent to the HDL-C is performed, if the relative level in the combined group is larger than the value of the product of the relative level of single agent A and the relative level of single agent B, the synergistic effect exists).
as §1
Group 3: Ezetimibe 0.01 mg/kg […]
Group 5: Ezetimibe 0.1 mg/kg […]
as §2

| SMILES | Effect on HDL-C level ([1]; Compound A 0.1 mg/kg alone) | HDL-C relative level to the control group ([1]; Compound A 0.1 mg/kg alone) | HDL-C Ave. ([1]; Compound A 0.1 mg/kg alone) | HDL-C Rate of Change ([1]; Compound A 0.1 mg/kg alone) [%] | HDL-C Relative Level (to Control) ([2]; Compound A 0.1 mg/kg alone) | LDL-C Relative Level (to Control) ([2]; Compound A 0.1 mg/kg alone) | TC Relative Level (to Control) ([2]; Compound A 0.1 mg/kg alone) | VLDL-C Relative Level (to Control) ([2]; Compound A 0.1 mg/kg alone) | Effect on HDL-C level ([1]; Ezetimibe 0.003 mg/kg alone) | HDL-C relative level to the control group ([1]; Ezetimibe 0.003 mg/kg alone) | HDL-C Ave. ([1]; Ezetimibe 0.003 mg/kg alone) | HDL-C Rate of Change ([1]; Ezetimibe 0.003 mg/kg alone) [%] | HDL-C Relative Level (to Control) ([2]; Ezetimibe 0.01 mg/kg alone) | LDL-C Relative Level (to Control) ([2]; Ezetimibe 0.01 mg/kg alone) | TC Relative Level (to Control) ([2]; Ezetimibe 0.01 mg/kg alone) | VLDL-C Relative Level (to Control) ([2]; Ezetimibe 0.01 mg/kg alone) | HDL-C Relative Level (to Control) ([2]; Ezetimibe 0.1 mg/kg alone) | LDL-C Relative Level (to Control) ([2]; Ezetimibe 0.1 mg/kg alone) | TC Relative Level (to Control) ([2]; Ezetimibe 0.1 mg/kg alone) | VLDL-C Relative Level (to Control) ([2]; Ezetimibe 0.1 mg/kg alone) |
| --- | --- | --- | --- | --- | --- | --- | --- | --- | --- | --- | --- | --- | --- | --- | --- | --- | --- | --- | --- | --- |
| CC[C@@H](Oc1cccc(CN(CCCOc2ccc(OC)cc2)c2nc3ccccc3o2)c1)C(=O)O [Compound A, (R)-2-[3-[[N-(benzoxazol-2-yl)-N-3-(4-methoxyphenoxy)propyl]aminomethyl]phenoxy]butyric acid] | apparent effects were not recognized | 1.010 | 24.3 | 1.0 | 1.021 | 0.971 | 0.956 | 0.827 | – | – | – | – | – | – | – | – | – | – | – | – |
| O=C1[C@H](CC[C@H](O)c2ccc(F)cc2)[C@@H](c2ccc(O)cc2)N1c1ccc(F)cc1 [Ezetimibe, (3R,4S)-1-(4-fluorophenyl)-3-{(3S)-3-(4-fluorophenyl)-3-hydroxypropyl}-4-(4-hydroxyphenyl)azetidin-2-one] | – | – | – | – | – | – | – | – | apparent effects were not recognized | 1.022 | 24.6 | 2.2 | 0.910 | 0.955 | 0.898 | 0.719 | 1.100 | 0.720 | 0.555 | 0.262 |
